For one assay, the system named is HepG2 spheroids. Briefly: Sensitivity to hepatotoxins, CellTiter-Glo ATP viability, 3D spheroids. Type of assay: cell-based. Particulars: Homo sapiens, 4-day repeat dosing (day 3 and day 5), readout day 7, estimated from graphs. Here is the method:
(§1) For 2D monolayers, 10,000 HepG2 cells were seeded on 96-well plates (Thermo Fisher, Ireland). Cells were left to adhere for 24 h before being treated with chosen NBMs for desired timepoints. For HepG2 spheroid formation, cells were seeded in CellStar® 96 well ultra-low attachment (ULA) cell-repellent plates (Grenier, BioOne, UK) at a density of 1000 cells per well in 100 µl medium (Fig. 1). After 3 days of incubation at 37 °C with 5% CO2, medium was changed with care taken not to disturb the spheroids.
(§2) Sensitivity of spheroid cultures to a panel of common hepatotoxins was tested using a protocol detailed previously in works from Gaskell et al. and Bell et al. and using information listed in the MIP-DILI training set. The hepatotoxins included acetaminophen, diclofenac, trovafloxacin and fialuridine. HepG2 spheroids grown for 3 days and 10 days were exposed to the hepatotoxins, diluted in cell culture medium, for 4 days, with an addition dose administered 2 days after the first exposure. Concentrations tested for each compound were the following: • Acetaminophen: 10000, 5000, 1250, 625, 300, 150, 75 µg/ml • Diclofenac: 400, 200, 100, 50, 25, 12.5, 6.25 µg/ml • Trovafloxacin: 500, 200, 100, 50, 25, 12.5, 6.25 µg/ml • Fialuridine: 200, 100, 50, 25, 12.5, 6.25, 3.15 µg/ml
(§3) Viability of the treated cultures was determined using the CellTiter-Glo® assay (Thermo Fisher, Ireland) as per the manufacturer’s protocol. Culture medium alone with CellTiter-Glo® reagent was used as a blank control and subtracted from all sample values. Cell viability was calculated as a percentage of untreated vehicle control samples. A dose-dependent response curve was plotted, and estimations were made about what concentration of drug would cause a 50% reduction in cell viability (IC50 value). Experiments were run in triplicate (n = 3).
(§4) Spheroids and HepG2 monolayers were treated with varying concentrations of four common hepatotoxic compounds, namely acetaminophen, diclofenac, fialuridine and trovafloxacin. Following a protocol detailed in Gaskell et al., a 4-day repeat-dosing regimen was used to expose 3D spheroids, i.e. spheroids were cultured for 3 days before being treated with hepatotoxic compounds for 2 days, before doing is repeated again on day 5. Spheroids then remained in culture untouched until ATP quantification assay was undertaken on day 7. […] Each of the four chosen compounds was more toxic in 3D spheroids than in 2D monocultures, although differences were not statistically significant. The concentration causing a 50% reduction in cell viability (IC50) was estimated for each drug tested from the graphs, and is reported in Table 7. A comparison to data extracted from the scientific literature is also reported.

In the next assay the test system is HepG2 2D monolayer. Nature of the assay: Sensitivity to hepatotoxins, CellTiter-Glo ATP viability, 2D monolayer. The class given is cell-based. The settings on record: Homo sapiens, 24-h acute dosing, estimated from graphs. Here is the method:
as §1, §2, §3, §4

Assay [1] concerns HepG2 cells (2D monocultures). Briefly: NBM exposure, LDH cytotoxicity assay, 2D monocultures. Particulars: 125 µM, 24 h. Type of assay: cell-based, Human.
Protocol: Stock NBM suspensions were vortexed and appropriate dilutions made in cell culture medium. For NBM exposures, briefly, cell culture medium was removed from the wells of culture plates and wells washed with pre-warmed PBS. For adenosine 5′-triphosphate (ATP) quantification and lactate dehydrogenase (LDH) assay, 100 µl of each NBM concentration diluted in culture medium was added to each well for three incubation/exposure timepoints, 24, 48 and 72 h.
The LDH assay is a cytotoxicity assay which is used to assess the level of plasma membrane damage in a cell population. […] LDH release in the supernatants (an indirect measure of cytotoxicity responses) was assessed using the Thermo Scientific Pierce LDH Cytotoxicity Assay Kit (Fisher Scientific, Ireland), following the manufacturers’ protocols. […] Absorbance values at wavelengths (λ) equal to 490 and 680 nm were read using an Epoch microplate reader (Biotek, Mason Technologies, Ireland). The LDH activity was calculated using Eq. (1), whereas the percentage (%) cytotoxicity was extrapolated from Eq. (2).1 LDHactivity=Absorbanceλ=490nm-Absorbanceλ=680nm 2 Cytotoxicity%=LDHactivityTreatedculture-LDHactivityNT/LDHactivityPT-LDHactivityNT […]

The values that follow come from PMC9360078, “Pre-clinical 2D and 3D toxicity response to a panel of nanomaterials; comparative assessment of NBM-induced liver toxicity” (Drug Delivery and Translational Research, 2022).

A value given as a limit tells only on which side of the number the result lay.

For orientation: IC50 means the midpoint of a concentration-inhibition curve. Regarding `O=c1[nH]c(=O)n([C@@H]2O[C@H](CO)[C@@H](O)[C@@H]2F)cc1I` [Fialuridine, fialuridine], the IC50 in the assay on HepG2 spheroids and in the assay with HepG2 2D monolayer was > 200 µM each time. `N[C@@H]1[C@H]2CN(c3nc4c(cc3F)c(=O)c(C(=O)O)cn4-c3ccc(F)cc3F)C[C@@H]12` [Trovafloxacin, trovafloxacin]: the IC50 is > 100 µM with HepG2 spheroids and > 400 µM in the assay with HepG2 2D monolayer.

With `CC(C)[C@@H]1NC(=O)[C@H](C)OC(=O)[C@@H](C(C)C)NC(=O)[C@@H](C(C)C)OC(=O)[C@H](C(C)C)NC(=O)[C@H](C)OC(=O)[C@@H](C(C)C)NC(=O)[C@@H](C(C)C)OC(=O)[C@H](C(C)C)NC(=O)[C@H](C)OC(=O)[C@@H](C(C)C)NC(=O)[C@@H](C(C)C)OC1=O` [valinomycin], the Maximal cell death in assay [1] is reported as < 50%. Take `O=C(O)Cc1ccccc1Nc1c(Cl)cccc1Cl` [Diclofenac, diclofenac]: the results for the IC50 in the assay with HepG2 spheroids and in the assay on HepG2 2D monolayer were > 250 µM and > 400 µM, respectively.

In the case of `CC(=O)Nc1ccc(O)cc1` [Acetaminophen, acetaminophen], the half-maximal inhibitory concentration (IC50) in the assay on HepG2 spheroids was > 8000 µM; in the assay on HepG2 2D monolayer, > 10000 µM.
